Measurements published in ChEMBL document CHEMBL5385959, “Trifluoroacetic acid-mediated synthesis of xanthene constructs and their extensive anti-tuberculosis evaluation” (RSC Med Chem, 2024).
Converted amounts (≈) assume the structure as drawn. The source made the active and inactive calls. The rule behind the calls is not given here.

Assays:
[1] = tested on: Pseudomonas aeruginosa; assay: Antibacterial activity against Pseudomonas aeruginosa assessed as reduction in bacterial growth incubated for 24 hrs by broth dilution method; type: functional
[2] = tested on: Mycobacterium tuberculosis; assay: Antibacterial activity against Mycobacterium tuberculosis H37Rv assessed as reduction in bacterial growth incubated for 14 days by CLSI protocol based method; type: functional; details: 336 h, time 14 day
[3] = tested on: Mycobacterium tuberculosis; assay: Antibacterial activity against Mycobacterium tuberculosis H37Ra assessed as reduction in bacterial growth incubated for 14 days by CLSI protocol based method; type: functional; details: 336 h, time 14 day
[4] = tested on: Escherichia coli; assay: Antibacterial activity against Escherichia coli assessed as reduction in bacterial growth incubated for 24 hrs by broth dilution method; type: functional
[5] = tested on: Bacillus subtilis; assay: Antibacterial activity against Bacillus subtilis assessed as reduction in bacterial growth incubated for 24 hrs by broth dilution method; type: functional
[6] = tested on: Mycobacterium tuberculosis; assay: Antibacterial activity against Mycobacterium tuberculosis H37Rv assessed as reduction in bacterial growth by broth microdilution method; type: functional
[7] = tested on: Mycobacterium tuberculosis; assay: Antibacterial activity against GFP-tagged Mycobacterium tuberculosis H37Rv assessed as reduction in GFP expression at half times MIC incubated for 7 days by confocal microscopic analysis; type: functional, organism-based; details: time 7.0 day
[8] = tested on: Mycobacterium tuberculosis; assay: Synergistic antibacterial activity against Mycobacterium tuberculosis H37Rv assessed as reduction in microbial growth in presence of rifampicin by broth microdilution method; type: functional
[9] = tested on: Mycobacterium tuberculosis; assay: Bactericidal activity Mycobacterium tuberculosis H37Rv incubated for 15 days by time kill assay; type: functional, organism-based; details: time 15.0 day
[10] = tested on: Mycobacterium tuberculosis; assay: Bactericidal activity Mycobacterium tuberculosis H37Rv incubated for 2 days by time kill assay; type: functional, organism-based; details: time 2.0 day
[11] = tested on: Mycobacterium tuberculosis; assay: Bactericidal activity Mycobacterium tuberculosis H37Rv at 4 times MIC incubated for 7 days by time kill assay; type: functional, organism-based; details: time 7.0 day
[12] = tested on: Mycobacterium tuberculosis; assay: Bactericidal activity Mycobacterium tuberculosis H37Rv assessed as log reduction in CFU at 2 times MIC incubated for 5 to 10 days by time kill assay; type: functional, organism-based; details: time 5-10 day
[13] = tested on: A549; assay: Cytotoxicity against human A549 cells assessed as reduction in cell viability at 200 uM incubated for 48 hrs by MTT assay; type: functional
[14] = tested on: Mycobacterium tuberculosis; assay: Synergistic antibacterial activity against Mycobacterium tuberculosis H37Rv assessed as reduction in microbial growth in presence of isoniazid by broth microdilution method; type: functional
[15] = tested on: Mycobacterium tuberculosis; assay: Bactericidal activity Mycobacterium tuberculosis assessed as reduction in bacterial growth incubated for 28 days by broth microdilution method; type: functional; details: 672 h, time 28 day
[16] = tested on: Mycobacterium tuberculosis; assay: Synergistic antibacterial activity against Mycobacterium tuberculosis H37Rv assessed as rifampicin MIC by broth microdilution method; type: functional
[17] = tested on: Mycobacterium tuberculosis; assay: Synergistic antibacterial activity against Mycobacterium tuberculosis H37Rv assessed as reduction in microbial growth in presence of ethambutol by broth microdilution method; type: functional
[18] = tested on: Mycobacterium tuberculosis; assay: Synergistic antibacterial activity against Mycobacterium tuberculosis H37Rv assessed as log reduction in CFU measured for 4 days in presence of isoniazid by time kill assay; type: functional; details: time 4 day
[19] = tested on: HEK293; assay: Cytotoxicity against HEK293 cells assessed as reduction in cell viability at 100 uM incubated for 48 hrs by MTT assay; type: toxicity, cell-based; details: human, hek293, 48 h
[20] = tested on: Mycobacterium tuberculosis; assay: Synergistic antibacterial activity against Mycobacterium tuberculosis H37Rv assessed as ethambutol MIC by broth microdilution method; type: functional
[21] = tested on: Mycobacterium tuberculosis; assay: Bactericidal activity Mycobacterium tuberculosis H37Rv assessed as log reduction in CFU at 2 times MIC incubated for 2 days by time kill assay; type: functional; details: time 2 day
[22] = tested on: Mycobacterium tuberculosis; assay: Synergistic antibacterial activity against Mycobacterium tuberculosis H37Rv assessed as log reduction in CFU measured for 2 days in presence of isoniazid by time kill assay; type: functional; details: time 2 day
[23] = Cytotoxicity against mouse RAW 264 cells assessed as reduction in cell viability at 150 uM incubated for 48 hrs by MTT assay; type: functional
[24] = tested on: Mycobacterium tuberculosis; assay: Synergistic antibacterial activity against Mycobacterium tuberculosis H37Rv assessed as isoniazid MIC by broth microdilution method; type: functional
[25] = tested on: Mycobacterium tuberculosis; assay: Bactericidal activity Mycobacterium tuberculosis H37Rv assessed as reduction in bacterial growth incubated for 2 days by time kill assay; type: functional; details: 48 h, time 2 day

Structure (SMILES) | MIC [1] | MIC [2] | MIC [3] | MIC [4] | MIC [5] | further results
Cc1cccc(C2C3=C(CCCC3=O)OC3=C2C(=O)CCC3)c1 | > 128 µg/mL | 64 µg/mL (≈ 208 µM) | 64 µg/mL (≈ 208 µM) | > 128 µg/mL | > 128 µg/mL | –
O=C1CCCC2=C1C(c1cccc(Cl)c1)C1=C(CCCC1=O)O2 | > 128 µg/mL | 64 µg/mL (≈ 195 µM) | 64 µg/mL (≈ 195 µM) | > 128 µg/mL | > 128 µg/mL | –
COc1ccc(C2C3=C(CCCC3=O)OC3=C2C(=O)CCC3)cc1 | > 128 µg/mL | 16 µg/mL (≈ 49.3 µM) | 16 µg/mL (≈ 49.3 µM) | > 128 µg/mL | > 128 µg/mL | –
O=C1CCCC2=C1C(c1ccc([N+](=O)[O-])cc1)C1=C(CCCC1=O)O2 | > 128 µg/mL | 64 µg/mL (≈ 189 µM) | 64 µg/mL (≈ 189 µM) | > 128 µg/mL | > 128 µg/mL | –
COc1ccc(C2C3=C(CCCC3=O)OC3=C2C(=O)CCC3)cc1O | > 128 µg/mL | 64 µg/mL (≈ 188 µM) | 64 µg/mL (≈ 188 µM) | > 128 µg/mL | > 128 µg/mL | –
N#CC1=C(N)Oc2c(c(=O)oc3ccccc23)C1c1ccc(O)cc1 (stereo not drawn) | – | > 64 µg/mL | – | – | – | –
CC1(C)CC(=O)C2=C(C1)OC(N)=C(C#N)C2c1ccc(O)cc1 (stereo not drawn) | – | > 64 µg/mL | – | – | – | –
O=C1CCCC2=C1C(c1cccc(Br)c1)C1=C(CCCC1=O)O2 | > 128 µg/mL | 64 µg/mL (≈ 171 µM) | 64 µg/mL (≈ 171 µM) | > 128 µg/mL | > 128 µg/mL | –
O=C1CCCC2=C1C(c1cccc([N+](=O)[O-])c1)C1=C(CCCC1=O)O2 | > 128 µg/mL | 64 µg/mL (≈ 189 µM) | 64 µg/mL (≈ 189 µM) | > 128 µg/mL | > 128 µg/mL | –
COc1cccc(C2C3=C(CC(C)(C)CC3=O)OC3=C2C(=O)CC(C)(C)C3)c1 | > 128 µg/mL | 64 µg/mL (≈ 168 µM) | 64 µg/mL (≈ 168 µM) | > 128 µg/mL | > 128 µg/mL | –
COc1ccccc1C1C2=C(CCCC2=O)OC2=C1C(=O)CCC2 | > 128 µg/mL | 64 µg/mL (≈ 197 µM) | 64 µg/mL (≈ 197 µM) | > 128 µg/mL | > 128 µg/mL | –
COc1cc(C2C3=C(CCCC3=O)OC3=C2C(=O)CCC3)ccc1O | > 128 µg/mL | 64 µg/mL (≈ 188 µM) | 64 µg/mL (≈ 188 µM) | > 128 µg/mL | > 128 µg/mL | –
O=C1CCCC2=C1C(c1cc(O)ccc1O)C1=C(CCCC1=O)O2 | > 128 µg/mL | 64 µg/mL (≈ 196 µM) | 64 µg/mL (≈ 196 µM) | > 128 µg/mL | > 128 µg/mL | –
CC[C@@H](CO)NCCN[C@@H](CC)CO [ETHAMBUTOL] | – | 1.25 µg/mL (≈ 6.12 µM) | 0.019 µg/mL (≈ 0.093 µM) | – | – | MIC [6]: 8 µg/mL (≈ 39.2 µM); Activity [7]: Active
C[C@H]1COc2c(N3CCN(C)CC3)c(F)cc3c(=O)c(C(=O)O)cn1c23 [LEVOFLOXACIN ANHYDROUS] | – | 2.5 µg/mL (≈ 6.92 µM) | 0.039 µg/mL (≈ 0.108 µM) | – | – | –
CC1(C)CC(=O)C2=C(C1)OC1=C(C(=O)CC(C)(C)C1)C2c1ccccc1 | > 128 µg/mL | 8 µg/mL (≈ 22.8 µM) | 8 µg/mL (≈ 22.8 µM) | > 128 µg/mL | > 128 µg/mL | MIC [8]: 0.009 µg/mL; Activity [9]: inactive; Activity [10]: Active; Activity [11]: Active; Activity [12]: Active; Activity [13]: >75%; MIC [14]: 0.078 µg/mL; MIC [6]: 8 µg/mL (≈ 22.8 µM); MBC [15]: 8 µg/mL (≈ 22.8 µM); MIC [16]: 0.009 µg/mL; MIC [17]: 0.25 µg/mL; Activity [18]: 1 log10CFU; Activity [19]: > 75%; MIC [20]: 0.312 µg/mL; Activity [7]: Active; Activity [21]: 3 log10CFU; Activity [22]: 2 log10CFU; Activity [23]: >75%; MIC [24]: 0.078 µg/mL; MIC [25]: 8 µg/mL (≈ 22.8 µM)
O=C1CCCC2=C1C(c1cccc(O)c1)C1=C(CCCC1=O)O2 | > 128 µg/mL | 64 µg/mL (≈ 206 µM) | 64 µg/mL (≈ 206 µM) | > 128 µg/mL | > 128 µg/mL | –
